Consider three molecules from US11452764B2, “Inhibiting FAK-AKT interaction to inhibit metastasis” (Board of Trustees of Michigan State University, priority 2017, dated 2022).

“Also recorded” adds a separate entry of the source. Bounds are passed on as bounds.

Assay [1] has as its system FAK-Tyr-397 phosphorylation. As to the kind of experiment: FAK-Y397 western blotting in suspended SW620 cells at ambient or 15 mmHg increased pressure (ZINC compounds). The assay is classed as cell-based, human. Particulars: 50 μM. The source says: (§1) Extracellular pressure was increased by 15 mmHg over ambient pressure using a temperature and pressure-controlled box as described by Basson et al. (J Cell Biochem, 78: 47-61 (2000)).
Cells were maintained at ambient or increased pressure in bacteriologic plastic dishes pacificated with heat-inactivated bovine serum albumin to prevent adhesion and avoid adhesion-associated background FAK activation. Cells were lysed in lysis buffer, resolved by 10% SDS-PAGE, transferred to nitrocellulose and blotted with antibody to Tyr-397-phosphorylated FAK (rabbit monoclonal ab81298, Abcam, San Francisco, Calif., USA) and anti-rabbit 680 (LI-COR Inc. Lincoln, Nebr., USA), before quantitation using Kodak Scientific Imaging Systems 1D, V.3.5.4 (Zeng et al., Oncotarget, 8 98051-98067 (2017)). Total FAK (Anti-FAK, clone 4.47 Merck, Darmstadt, Germany with secondary anti-mouse 800, LI-COR Inc. Lincoln, Nebr., USA) served as a loading control. FAK and Tyr-397-phosphorylated FAK western blots yielded doublets similar to those previously observed by others (McConnell et al. Mol Cancer 10: 75 (2011); Aflaki et al. Cell Mol Life Sci, 68: 3933-3947 (2011)); Das et al. Cancer Res, 72: 6217-6226 (2012); Ammoun et al. Oncogene, 31: 1710-1722 (2012)). Both bands were quantitated together.
Four structurally similar molecules to the FAK-derived sequence LAHPP (SEQ ID NO:25) (Table 2) were evaluated for their ability to prevent FAK activation by 15 mmHg increased extracellular pressure in human SW620 colon cancer cells. […] The structures of these compounds are shown below (and in FIG. 17).
A general note: Immunoblotting shows a protein as a band on a membrane.

For a further assay, the system named is SW620 colon cancer cells. As to the kind of experiment: Adhesion assay of SW620 cells to collagen I at ambient or 15 mmHg increased pressure (ZINC compounds). The format is cell-based, human. The conditions noted are these: 30 minutes; for Concentration at which pressure stimulated adhesion was blocked / Pressure stimulated adhesion: 15 mmHg; for Pressure stimulated adhesion / Basal adhesion: concentrations studied 10-200 μM (per compound in Table 3); for Basal adhesion: ambient pressure. As for the experimental part:
as §1
Cells were seeded in an amount of 50,000 cells/well into 24 well plates precoated with collagen I (Sigma, St. Louis, Mo., USA) at 37° C. under ambient or 15 mmHg increased pressure as described by Basson et al. J Cell Biochem 78: 47-61 (2000)). After 30 minutes, non-adherent cells were washed away. Adherent cells were stained with MTS (CellTiter 96® AQueous One Solution Cell Proliferation Assay, Madison, Wis., USA) and plates were read at 490 nm.
Seven molecules were studied that structurally mimic AAHPSEE (SEQ ID NO:24), including five analogs of ZINC04085549 (FIG. 16A-16G). These molecules' effects on basal and pressure-stimulated human SW620 colon cancer cell adhesion to collagen I were assayed first. Most molecules had no effect at the concentrations studied (Table 3).

The target of the next assay is Akt1 (Homo sapiens, UniProt P31749). Particulars: Zeng et al., Oncotarget 2017; cited from earlier work.
Sequence of Akt1 (P31749 whole entry, species assumed): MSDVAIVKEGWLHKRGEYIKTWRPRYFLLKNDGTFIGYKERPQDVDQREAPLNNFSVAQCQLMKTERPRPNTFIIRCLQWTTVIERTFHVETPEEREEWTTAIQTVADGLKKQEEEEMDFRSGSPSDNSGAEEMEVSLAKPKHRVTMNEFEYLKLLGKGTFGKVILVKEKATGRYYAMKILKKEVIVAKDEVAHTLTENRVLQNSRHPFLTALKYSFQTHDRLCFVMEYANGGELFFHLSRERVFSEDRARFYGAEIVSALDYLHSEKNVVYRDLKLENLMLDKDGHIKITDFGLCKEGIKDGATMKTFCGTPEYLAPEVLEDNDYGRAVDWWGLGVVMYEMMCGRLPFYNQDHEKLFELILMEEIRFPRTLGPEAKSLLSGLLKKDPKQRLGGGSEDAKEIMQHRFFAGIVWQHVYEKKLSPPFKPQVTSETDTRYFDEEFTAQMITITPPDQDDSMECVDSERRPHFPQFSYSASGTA

Turning to `Cc1ccccc1C(=O)O/N=C1\CCCCC1c1ccc([N+](=O)[O-])cc1[N+](=O)[O-]` (stereo not drawn) [ZINC04085549], in assay [1] (suspended SW620), the “Basal ambient pressure FAK-Tyr-397 phosphorylation” value is on record as “without affecting basal ambient pressure FAK-Tyr-397 phosphorylation”. Also, the “Pressure-stimulated FAK-Tyr-397 phosphorylation” value in assay [1] (suspended SW620, 15 mmHg) was “prevented pressure-stimulated FAK-Tyr-397 phosphorylation”. In the assay with SW620 colon cancer cells, the “Concentration at which pressure stimulated adhesion was blocked” value is not below 50 µM, the Pressure stimulated adhesion result is on record as “prevented pressure-stimulated increases in SW620 adhesion; also recorded: Blocked” and the Basal adhesion entry is “without altering basal adhesiveness at ambient pressure; also recorded: Maintained”.
For the molecule “AAHPSEE [two-site mutant of FAK residues 113-119, more helical analog used as screening query]”, the “Competition with FAK for binding to AKT1” value in the assay with Akt1 is “effectively compete with FAK for binding to AKT1”.
Turning to `COc1ccc(C(=O)O/N=C2\CCCCC2c2ccc([N+](=O)[O-])cc2[N+](=O)[O-])cc1` (stereo not drawn) [ZINC4085554], in the assay on SW620 colon cancer cells, the “Concentration at which pressure stimulated adhesion was blocked” value was not below 50 µM, the Pressure stimulated adhesion entry was “prevented pressure-stimulated increases in SW620 adhesion; also recorded: Blocked” and the Basal adhesion entry is recorded as “without altering basal adhesiveness at ambient pressure; also recorded: Maintained”.
